In patent US20220279826A1, “OFF-FLAVOR SUPPRESSING AGENT” (AJINOMOTO CO., INC., priority 2019, published 2022):

Tests used:
[1] = Sensory evaluation in granular fava bean protein (Experimental Example 16); conditions: Table 30
Protocol: Each compound shown in the following Table 30 was added to granular fava bean protein (manufactured by Schouten) so as to achieve the concentration (addition concentration) shown in the following Table 30 to prepare each evaluation sample.
Based on the following evaluation criteria, a panel of four experts determined by consensus the intensity of off-tastes (bitter taste, harsh taste, astringent taste) derived from fava bean protein in each evaluation sample, by comparison with granular fava bean protein without addition of any compound (negative control).

[2] = Sensory evaluation in 0.12 wt % aspartame aqueous solution (Experimental Example 12); conditions: Table 26
Protocol: Each compound shown in the following Table 26 was added to a 0.12 wt % aspartame aqueous solution (an aqueous solution prepared by dissolving aspartame (0.12 parts by weight) in ion exchange water (99.88 parts by weight)) so as to achieve the concentration (addition concentration) shown in the following Table 26 to prepare each evaluation sample.
Based on the following evaluation criteria, a panel of three experts determined by consensus the intensity of off-tastes (bitter taste, harsh taste, metallic taste) derived from aspartame in each evaluation sample, by comparison with a 0.12 wt % aspartame aqueous solution without addition of any compound (negative control).

[3] = Sensory evaluation in soy protein aqueous solution (Experimental Example 13); conditions: Table 27
Protocol: Each compound shown in the following Table 27 was added to an aqueous solution prepared by dissolving powdered soy protein (4 parts by weight) in water (96 parts by weight) (hereinafter at times referred to as soy protein aqueous solution) so as to achieve the concentration (addition concentration) shown in the following Table 27 to prepare each evaluation sample. Here, the powdered soy protein manufactured by FUJI OIL CO., LTD. was used.
Based on the following evaluation criteria, a panel of four experts determined by consensus the intensity of off-tastes (bitter taste, harsh taste, astringent taste) derived from soy protein in each evaluation sample, by comparison with a soy protein aqueous solution without addition of any compound (negative control).

[4] = Sensory evaluation in granular pea protein (Experimental Example 15); conditions: Table 29
Protocol: Each compound shown in the following Table 29 was added to granular pea protein (manufactured by Roquette) so as to achieve the concentration (addition concentration) shown in the following Table 29 to prepare each evaluation sample.
Based on the following evaluation criteria, a panel of four experts determined by consensus the intensity of off-tastes (bitter taste, harsh taste, astringent taste) derived from pea protein in each evaluation sample, by comparison with granular pea protein without addition of any compound (negative control).

[5] = Sensory evaluation in sodium acetate aqueous solution (Experimental Example 18); conditions: Table 33
Protocol: Each compound shown in the following Table 33 was added to an aqueous solution prepared by dissolving sodium acetate (1 part by weight) and acetic acid (0.3 parts by weight) in water (98.7 parts by weight) (hereinafter at times referred to as sodium acetate aqueous solution) so as to achieve the concentration (addition concentration) shown in the following Table 33 to prepare each evaluation sample.
Based on the following evaluation criteria, a panel of four experts determined by consensus the intensity of off-tastes (bitter taste, harsh taste, astringent taste) derived from sodium acetate in each evaluation sample, by comparison with a sodium acetate aqueous solution without addition of any compound (negative control).

[6] = Sensory evaluation in soy protein hamburg steak (Experimental Example 17); conditions: Table 32
Protocol: Of the materials shown in the following Table 31, the materials of category 1 were first mixed, and the materials of category 2 were further mixed. The obtained mixture was formed into a circular shape of about 100 g per piece, and then baked at 180° C. for 2 minutes and 30 seconds for each of the front and back sides on an iron plate to produce a soy protein hamburg steak. Here, the granular soy protein manufactured by FUJI OIL CO., LTD. was used.
Each compound shown in the following Table 32 was added to soy protein hamburg steak so as to achieve the concentration (addition concentration) shown in the following Table 32 to prepare each evaluation sample.
Based on the following evaluation criteria, a panel of five experts determined by consensus the intensity of off-tastes (bitter taste, harsh taste, astringent taste) derived from soy protein in each evaluation sample, by comparison with soy protein hamburg steak without addition of any compound (negative control).

[7] = Sensory evaluation in 0.007 wt % sucralose aqueous solution (Experimental Example 11); conditions: Table 25
Protocol: Each compound shown in the following Table 25 was added to a 0.007 wt % sucralose aqueous solution (an aqueous solution prepared by dissolving sucralose (0.007 parts by weight) in water (99.993 parts by weight)) so as to achieve the concentration (addition concentration) shown in the following Table 25 to prepare each evaluation sample.
Based on the following evaluation criteria, a panel of three experts determined by consensus the intensity of off-tastes (bitter taste, harsh taste, metallic taste) derived from sucralose in each evaluation sample, by comparison with a 0.007 wt % sucralose aqueous solution without addition of any compound (negative control).

[8] = Sensory evaluation in stevia aqueous solution (Experimental Example 7); conditions: text summary of Table 21
Protocol: Each compound shown in the following Table 21 was added […] to an aqueous solution prepared by dissolving stevia (manufactured by PureCircle) ([…]) in ion exchange water (99.93 parts by weight) (hereinafter at times referred to as stevia aqueous solution) so as to achieve the concentration (addition concentration) shown in the following Table 21 to prepare each evaluation sample.
Based on the following evaluation criteria, a panel of four experts determined by consensus the intensity of off-tastes (bitter taste, harsh taste, metallic taste) derived from stevia in each evaluation sample, by comparison with a stevia aqueous solution without addition of any compound (negative control).

[9] = Sensory evaluation of off-taste suppressing effect in 0.8 wt % potassium chloride aqueous solution (Experimental Examples 1 and 2)
[10] = 0.8 wt % potassium chloride aqueous solution, addition concentration 100 weight ppb (12.5 weight ppm with respect to potassium chloride)
[11] = 0.8 wt % potassium chloride aqueous solution, addition concentration 500 weight ppb (62.5 weight ppm with respect to potassium chloride)
[12] = in words, potassium chloride aqueous solutions, Tables 1 to 14
[13] = potassium chloride aqueous solutions, Tables 1 to 14
[14] = 0.8 wt % potassium chloride aqueous solution, addition concentration 1000 weight ppb (125 weight ppm with respect to potassium chloride)
[15] = 0.8 wt % potassium chloride aqueous solution, addition concentration 2000 weight ppb (250 weight ppm with respect to potassium chloride)

Structure (SMILES) | intensity of off-tastes (bitter taste, harsh taste, astringent taste) derived from fava bean protein [1] | intensity of off-tastes (bitter taste, harsh taste, metallic taste) derived from aspartame [2] | intensity of off-tastes (bitter taste, harsh taste, astringent taste) derived from soy protein [3] | intensity of off-tastes (bitter taste, harsh taste, astringent taste) derived from pea protein [4] | intensity of off-tastes (bitter taste, harsh taste, astringent taste) derived from sodium acetate [5] | intensity of off-tastes (bitter taste, harsh taste, astringent taste) derived from soy protein [6] | intensity of off-tastes (bitter taste, harsh taste, metallic taste) derived from sucralose [7] | intensity of off-tastes (bitter taste, harsh taste, metallic taste) derived from stevia [8] | off-taste suppressing effect ([9]; 0.8 wt % potassium chloride aqueous solution, addition concentration 50 weight ppb (6.25 weight ppm with respect to potassium chloride)) | off-taste suppressing effect [9, 10] | off-taste suppressing effect [9, 11] | off-taste suppressing effect [9, 12] | intensity of off-tastes (bitter taste, metallic taste, harsh taste, astringent taste) derived from potassium chloride [9, 13] | off-taste suppressing effect [9, 14] | off-taste suppressing effect [9, 15]
CC(=O)c1ccco1 [2-acetylfuran] | suppressed | suppressed | suppressed | suppressed | suppressed | suppressed | suppressed | suppressed | ++ (intensity of the same level as potassium chloride aqueous solution with potassium chloride concentration of not less than 0.7 wt % and less than 0.75 wt %) | +++ (intensity of the same level as potassium chloride aqueous solution with potassium chloride concentration of not less than 0.65 wt % and less than 0.7 wt %) | + (intensity of the same level as potassium chloride aqueous solution with potassium chloride concentration of not less than 0.75 wt % and less than 0.8 wt %) | high | decreased |  | 
CC(=O)c1ccc(C)o1 [2-acetyl-5-methylfuran] | suppressed | suppressed | suppressed | suppressed | suppressed | suppressed | suppressed | suppressed |  | + (intensity of the same level as potassium chloride aqueous solution with potassium chloride concentration of not less than 0.75 wt % and less than 0.8 wt %) | ++ (intensity of the same level as potassium chloride aqueous solution with potassium chloride concentration of not less than 0.7 wt % and less than 0.75 wt %) |  | decreased | + (intensity of the same level as potassium chloride aqueous solution with potassium chloride concentration of not less than 0.75 wt % and less than 0.8 wt %) | + (intensity of the same level as potassium chloride aqueous solution with potassium chloride concentration of not less than 0.75 wt % and less than 0.8 wt %)
CCC(=O)O [propionic acid] | suppressed | suppressed | suppressed | suppressed | suppressed | suppressed | suppressed | suppressed |  | + (intensity of the same level as potassium chloride aqueous solution with potassium chloride concentration of not less than 0.75 wt % and less than 0.8 wt %) | ++ (intensity of the same level as potassium chloride aqueous solution with potassium chloride concentration of not less than 0.7 wt % and less than 0.75 wt %) | high | decreased | ++ (intensity of the same level as potassium chloride aqueous solution with potassium chloride concentration of not less than 0.7 wt % and less than 0.75 wt %) | ++ (intensity of the same level as potassium chloride aqueous solution with potassium chloride concentration of not less than 0.7 wt % and less than 0.75 wt %)
